# Data published in US20150315202A1, “CHLORIN DERIVATIVE USEFUL IN PHOTODYNAMIC THERAPY AND DIAGNOSIS” (RMW CHO GROUP LIMITED, priority 2012, published 2015).
# How the values were obtained:
# lung cancer [1] = assay: In vivo studies Example 5: patient, oral chlorin e4 sodium plus laser and LED light; set-up: species or system human; conditions: three months after one course
# Experimental: (§1) A patient with lung cancer was treated successfully. The treatment consisted of one course of five doses of 62.5-187.5 mg chlorin e4 sodium administered orally over the course of eight days. 24-48 hours after each oral dose of chlorin e4 sodium, the patient was treated with laser and LED light having a wavelength of 660 nm and 760 nm.
# lung cancer [2] = assay: In vivo studies Example 6: patient, oral chlorin e4 sodium plus laser and LED light; set-up: species or system human; conditions: immediately after the last of three courses
# Experimental: as §1, with “consisted of three courses. For each course, five doses” for “consisted of one course of five doses”, “e4 sodium were administered orally” for “e4 sodium administered orally”
# [3] = Absorption spectra of chlorin e4 sodium solutions; assay type: physicochemical; conditions: all solvents (ethanol, water, water + SDS)
# Experimental: Absorption spectra were recorded using computerized spectrophotometers Hitachi 3400 (Japan) and SF-2000 (Russia). Fluorescence spectra were measured with a computerized spectrofluorimeter Perkin-Elmer MPF-44B. 10 mm wide quartz cuvettes were used for absorption and fluorescence measurements. Fluorescence was detected at a right angle to the excitation beam. The spectral bandwidth of the monochromator was 3 nm. […] The fluorescence quantum yields (ΦF) were determined using as a reference, solutions of TPPS (m-tetrakis(p-sulfonatophenyl)porphine) in ethanol. According to the literature, the most likely fluorescence quantum yield of TPPS in air-saturated water and ethanol is equal to 0.08 (K. Kalyanasundaram and M. Neumann-Spallart, Photophysical and redox properties of water soluble porphyrins in aqueous media, J. Phys. Chem., 1982, 86, 5163-5169; and A. T. Gradyushko, A. N. Sevchenko, K. N. Solovyov and M. P. Tsvirko, Energetics of photophysical processes in chlorophyll-like molecules, Photochem. Photobiol., 1970, 11, 387-400). The fluorescence of the samples was excited by the monochromatic light corresponding to the maximum of the Soret bands: 415 nm for TPPS in ethanol and 413 nm for TPPS in water, and 403 nm for chlorin e4 sodium in water and ethanol. The monochromator bandwidth was 3 nm. The fluorescence quantum yields (ΦF) were calculated using the following equation: […]
# [4] = tested on: advanced pancreatic cancer with metastases in the liver; assay: In vivo studies Example 7: patient, oral chlorin e4 sodium plus laser and LED light; set-up: species or system human
# Experimental: A patient with advanced pancreatic cancer with metastases in the liver, was treated successfully. Prior to treatment the patient was in poor health generally and suffering from extreme weight loss, pain and other typical symptoms of advanced pancreatic cancer. The treatment consisted of three courses. For each course, five doses of 62.5-187.5 mg chlorin e4 sodium were administered orally over the course of eight days. About 24 hours after each oral dose of chlorin e4 sodium, the patient was treated with laser and LED light having a wavelength of 660 nm and 760 nm.
# [5] = tested on: naso pharyngeal carcinoma with metastases in the lymph nodes of the left neck and in the lung; assay: In vivo studies Example 10: patient, oral chlorin e4 sodium plus laser and LED light; set-up: species or system human
# Experimental: A patient with naso pharyngeal carcinoma with metastases in the lymph nodes of the left neck and in the lung, was treated successfully. The treatment consisted of five courses. For each course, five doses of 62.5-187.5 mg chlorin e4 sodium were administered orally over the course of eight days. 24-48 hours after each oral dose of chlorin e4 sodium, the patient was treated with laser and LED light having a wavelength of 660 nm and 760 nm. Additionally an interstitial light treatment using a fine needle was performed on the left lung to a tumour that was large in size with an optical fibre laser having a wavelength of 660 nm and 760 nm.
# [6] = tested on: breast cancer in the right breast; assay: In vivo studies Example 9: patient, oral chlorin e4 sodium plus laser and LED light; set-up: species or system human
# Experimental: A patient with breast cancer in the right breast was treated successfully. The treatment consisted of three courses. For each course, five doses of 62.5-187.5 mg chlorin e4 sodium were administered orally over the course of eight days. 24-48 hours after each oral dose of chlorin e4 sodium, the patient was treated with laser and LED light having a wavelength of 660 nm and 760 nm.
smiles,measurement,setting,value
C=Cc1c(C)c2cc3nc(c(C)c4[nH]c(cc5nc(cc1[nH]2)C(C)=C5CC)c(C)c4C(=O)O)[C@@H](CCC(=O)O)[C@@H]3C [chlorin e4 sodium],CT scan finding,lung cancer [1],tumour breakdown
same,CT scan finding,lung cancer [2],complete recovery from lung cancer
same,Aggregation state from absorption spectra,[3],mostly monomeric
same,Response in the pancreatic area (PET/CT),[4]; before and after three courses,improvements and a good treatment response
same,Pain,[4]; three courses,suffered less pain
same,Photosensitive reaction,[4]; three courses,no photosensitive reaction
same,Response (PET/CT),"[5]; five courses, interstitial light on left lung",very good treatment response
same,Patient status,"[5]; one year and five months after starting, two months after completion of treatment",alive and well
same,"Response of the breasts (mammography, ultrasound and PET/CT)",[6]; before and after three courses,complete response
same,Patient status,"[6]; one year and seven months after starting, 10 months after completion of treatment",alive and well
same,Side effects,[6]; three courses,no side effects
